Earlier results in patent US11304932B2, “Diaryl and arylheteroaryl urea derivatives as modulators of the 5-HT2A serotonin receptor useful for the prophylaxis and treatment of hallucinations associated with a neurodegenerative disease” (Axovant Sciences GmbH, priority 2015, dated 2022).

Key:
[1] = clozapine at low dose

| SMILES | efficacy in psychotic symptoms associated with Parkinson's Disease [1] | tolerability and PK/PD profile (daily dose of 80 mg, studies completed to date) | safety and tolerability profile (previous clinical studies to date, proposed dose range) |
| --- | --- | --- | --- |
| CC(C)COc1ccc(CNC(=O)N(Cc2ccc(F)cc2)C2CCN(C)CC2)cc1 [pimavanserin, N-(4-fluorophenylmethyl)-N-(1-methylpiperidin-4-yl)-N′-(4-(2-methylpropyloxy)phenylmethyl)carbamide] | demonstrate efficacy |  |  |
| COc1ccc(NC(=O)Nc2ccc(F)cc2F)cc1-c1c(Br)cnn1C [Nelotanserin, 1-[3-(4-bromo-2-methyl-2H-pyrazol-3-yl)-4-methoxy-phenyl]-3-(2,4-difluoro-phenyl)-urea] |  | favorable tolerability and PK/PD profile | acceptable safety and tolerability profile |
